In ChEMBL document CHEMBL4304783, “Discovery of a Novel Selective Dual Peroxisome Proliferator-Activated Receptor α/δ Agonist for the Treatment of Primary Biliary Cirrhosis” (ACS Med Chem Lett, 2019):
Calls of active or inactive are those of the source. The rule behind the calls is not given here.

What was measured:
[1] = molecular target: T1, Peroxisome proliferator-activated receptor gamma (Homo sapiens, UniProt P37231); assay: Agonist activity at PPARgamma (unknown origin) incubated for 3 to 16 hrs by pathhunter nuclear hormone receptor assay
T1 sequence (P37231 whole entry): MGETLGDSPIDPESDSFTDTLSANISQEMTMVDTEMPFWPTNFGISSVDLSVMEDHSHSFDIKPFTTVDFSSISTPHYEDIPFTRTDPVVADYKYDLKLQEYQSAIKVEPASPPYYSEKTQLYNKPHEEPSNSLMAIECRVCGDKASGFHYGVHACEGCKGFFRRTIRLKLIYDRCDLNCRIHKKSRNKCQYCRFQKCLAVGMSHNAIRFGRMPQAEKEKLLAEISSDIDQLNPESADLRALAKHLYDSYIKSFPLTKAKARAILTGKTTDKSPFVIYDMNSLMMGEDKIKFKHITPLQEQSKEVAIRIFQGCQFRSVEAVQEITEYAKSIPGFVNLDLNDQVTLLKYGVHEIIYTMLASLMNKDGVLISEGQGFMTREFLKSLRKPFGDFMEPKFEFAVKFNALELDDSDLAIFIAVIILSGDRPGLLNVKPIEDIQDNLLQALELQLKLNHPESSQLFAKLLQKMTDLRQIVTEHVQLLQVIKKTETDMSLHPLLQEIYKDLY

[2] = Clearance in C57BL/6J mouse at 1 mg/kg, iv measured upto 24 hrs by LC-MS/MS analysis; format: ADME, organism-based; conditions: in vivo
[3] = Apparent permeability across apical to basolateral side in human Caco2 cells at 2 uM incubated for 120 mins by LC-MS/MS analysis; format: ADME, cell-based; conditions: Caco-2
Bile acid receptor = molecular target: T2, Bile acid receptor (Homo sapiens, UniProt Q96RI1); assay: Binding affinity to human recombinant GST-tagged FXR LBD (193-472 residues) expressed in baculovirus infected insect cells incubated for 1 hr by luminometry
T2 sequence (Q96RI1 whole entry): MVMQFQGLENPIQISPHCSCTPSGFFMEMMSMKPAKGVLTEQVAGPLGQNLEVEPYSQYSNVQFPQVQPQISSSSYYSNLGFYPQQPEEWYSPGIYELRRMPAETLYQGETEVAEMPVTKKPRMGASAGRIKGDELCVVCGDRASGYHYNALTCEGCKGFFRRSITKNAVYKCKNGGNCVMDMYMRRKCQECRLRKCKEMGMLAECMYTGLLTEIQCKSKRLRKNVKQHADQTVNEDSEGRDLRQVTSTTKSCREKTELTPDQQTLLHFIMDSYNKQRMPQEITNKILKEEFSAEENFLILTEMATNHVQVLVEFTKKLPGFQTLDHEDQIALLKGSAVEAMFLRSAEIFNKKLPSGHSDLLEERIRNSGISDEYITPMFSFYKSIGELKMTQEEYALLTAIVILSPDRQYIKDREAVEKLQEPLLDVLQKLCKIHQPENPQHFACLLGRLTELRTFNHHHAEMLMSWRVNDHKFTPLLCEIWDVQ

Cytochrome P450 2C9 = Cytochrome P450 2C9 (Homo sapiens, UniProt P11712); assay: Inhibition of CYP2C9 in human liver microsomes using diclofenac as substrate incubated for 10 mins followed by substrate addition further incubated for 10 mins by LC-MS/MS analysis; format: ADME
Rattus norvegicus [4] = assay: Hepatoprotective activity in Sprague-Dawley rat assessed as reduction in ANIT-stimulated fibrosis area at 3 mg/kg, ig administered for 8 days by hematoxylin and eosin staining based mopho-metric analysis relative to control; format: functional; set-up: scale not given: the % may be the effect or the level left
[5] = Half life in C57BL/6J mouse at 1 mg/kg, iv measured upto 24 hrs by LC-MS/MS analysis; format: ADME, organism-based; conditions: in vivo
Rattus norvegicus [6] = assay: Hepatoprotective activity in Sprague-Dawley rat assessed as reduction in ANIT-stimulated total bilirubin level at 3 mg/kg, ig administered for 8 days by biochemical analysis; format: functional, organism-based
Cytochrome P450 1A2 = molecular target: T3, Cytochrome P450 1A2 (Homo sapiens, UniProt P05177); assay: Inhibition of CYP1A2 in human liver microsomes using phenacetin as substrate incubated for 10 mins followed by substrate addition further incubated for 10 mins by LC-MS/MS analysis; format: ADME
T3 sequence (P05177 whole entry): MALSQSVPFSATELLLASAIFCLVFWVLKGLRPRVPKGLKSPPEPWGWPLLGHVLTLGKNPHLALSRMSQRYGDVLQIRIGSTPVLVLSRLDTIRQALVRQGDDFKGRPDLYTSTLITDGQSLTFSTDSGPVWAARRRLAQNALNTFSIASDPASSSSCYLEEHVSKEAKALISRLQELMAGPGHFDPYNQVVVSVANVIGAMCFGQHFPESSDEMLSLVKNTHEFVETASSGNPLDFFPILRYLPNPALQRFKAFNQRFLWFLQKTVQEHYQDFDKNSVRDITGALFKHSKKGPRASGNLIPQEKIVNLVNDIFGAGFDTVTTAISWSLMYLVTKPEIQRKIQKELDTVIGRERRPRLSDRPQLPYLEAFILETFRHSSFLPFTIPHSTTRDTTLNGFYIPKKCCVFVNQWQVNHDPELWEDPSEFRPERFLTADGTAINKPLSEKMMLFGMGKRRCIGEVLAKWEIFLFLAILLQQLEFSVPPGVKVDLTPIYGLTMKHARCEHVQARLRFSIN

Cytochrome P450 2C19 = Cytochrome P450 2C19 (Homo sapiens, UniProt P33261); assay: Inhibition of CYP2C19 in human liver microsomes using S-mephenytoin as substrate incubated for 10 mins followed by substrate addition further incubated for 10 mins by LC-MS/MS analysis; format: ADME
[7] = Half life in Sprague-Dawley rat at 1 mg/kg, iv measured upto 24 hrs by LC-MS/MS analysis; format: ADME, organism-based; conditions: in vivo
[8] = Protein binding in human plasma at 2 uM incubated for 4 hrs by LC-MS/MS analysis; format: ADME, cell-free
[9] = molecular target: Voltage-gated inwardly rectifying potassium channel KCNH2 (Homo sapiens, UniProt Q12809); assay: Inhibition of human ERG expressed in CHO-K1 cells by whole-cell patch clamp assay; format: cell-based
[10] = AUC (0 to last) in C57BL/6J mouse at 10 mg/kg, po measured upto 24 hrs by LC-MS/MS analysis; format: ADME, organism-based; set-up: dose 10 mg/kg, route oral, time 0 - last; conditions: in vivo
[11] = Apparent permeability across basolateral to apical side in human Caco2 cells at 2 uM incubated for 120 mins by LC-MS/MS analysis; format: ADME, cell-based; conditions: Caco-2
[12] = AUC (0 to last) in C57BL/6J mouse at 1 mg/kg, iv measured upto 24 hrs by LC-MS/MS analysis; format: ADME, organism-based; set-up: dose 1 mg/kg, time 0 - last, route intravenous; conditions: in vivo

Chain of Cytochrome P450 2C19 (P33261 whole entry): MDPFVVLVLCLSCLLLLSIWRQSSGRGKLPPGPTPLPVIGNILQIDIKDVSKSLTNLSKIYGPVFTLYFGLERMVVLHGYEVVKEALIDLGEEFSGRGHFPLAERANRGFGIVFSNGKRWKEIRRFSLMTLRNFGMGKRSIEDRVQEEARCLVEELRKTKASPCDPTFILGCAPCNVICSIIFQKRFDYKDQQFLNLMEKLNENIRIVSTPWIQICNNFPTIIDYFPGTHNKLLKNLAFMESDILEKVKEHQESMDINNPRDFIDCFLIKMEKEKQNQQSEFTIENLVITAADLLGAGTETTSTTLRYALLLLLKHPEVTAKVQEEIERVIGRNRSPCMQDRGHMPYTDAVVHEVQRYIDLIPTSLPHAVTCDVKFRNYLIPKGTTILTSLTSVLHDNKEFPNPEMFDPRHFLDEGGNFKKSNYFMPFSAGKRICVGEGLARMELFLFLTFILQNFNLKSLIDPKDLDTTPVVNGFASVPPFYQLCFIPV
Chain of Cytochrome P450 2C9 (P11712 whole entry): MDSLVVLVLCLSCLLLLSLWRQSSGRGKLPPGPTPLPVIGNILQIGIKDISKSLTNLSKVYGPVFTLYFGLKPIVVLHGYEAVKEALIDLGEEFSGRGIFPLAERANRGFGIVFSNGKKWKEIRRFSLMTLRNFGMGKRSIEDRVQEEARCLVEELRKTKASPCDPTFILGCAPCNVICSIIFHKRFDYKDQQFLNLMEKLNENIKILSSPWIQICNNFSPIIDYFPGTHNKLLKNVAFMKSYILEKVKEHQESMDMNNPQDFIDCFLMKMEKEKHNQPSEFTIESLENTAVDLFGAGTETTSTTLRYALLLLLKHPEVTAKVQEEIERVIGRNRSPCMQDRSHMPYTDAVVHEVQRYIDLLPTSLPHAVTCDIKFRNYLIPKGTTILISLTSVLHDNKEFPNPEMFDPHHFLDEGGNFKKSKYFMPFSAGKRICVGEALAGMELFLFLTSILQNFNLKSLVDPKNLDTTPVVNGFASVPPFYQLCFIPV
Chain of Voltage-gated inwardly rectifying potassium channel KCNH2 (Q12809 whole entry): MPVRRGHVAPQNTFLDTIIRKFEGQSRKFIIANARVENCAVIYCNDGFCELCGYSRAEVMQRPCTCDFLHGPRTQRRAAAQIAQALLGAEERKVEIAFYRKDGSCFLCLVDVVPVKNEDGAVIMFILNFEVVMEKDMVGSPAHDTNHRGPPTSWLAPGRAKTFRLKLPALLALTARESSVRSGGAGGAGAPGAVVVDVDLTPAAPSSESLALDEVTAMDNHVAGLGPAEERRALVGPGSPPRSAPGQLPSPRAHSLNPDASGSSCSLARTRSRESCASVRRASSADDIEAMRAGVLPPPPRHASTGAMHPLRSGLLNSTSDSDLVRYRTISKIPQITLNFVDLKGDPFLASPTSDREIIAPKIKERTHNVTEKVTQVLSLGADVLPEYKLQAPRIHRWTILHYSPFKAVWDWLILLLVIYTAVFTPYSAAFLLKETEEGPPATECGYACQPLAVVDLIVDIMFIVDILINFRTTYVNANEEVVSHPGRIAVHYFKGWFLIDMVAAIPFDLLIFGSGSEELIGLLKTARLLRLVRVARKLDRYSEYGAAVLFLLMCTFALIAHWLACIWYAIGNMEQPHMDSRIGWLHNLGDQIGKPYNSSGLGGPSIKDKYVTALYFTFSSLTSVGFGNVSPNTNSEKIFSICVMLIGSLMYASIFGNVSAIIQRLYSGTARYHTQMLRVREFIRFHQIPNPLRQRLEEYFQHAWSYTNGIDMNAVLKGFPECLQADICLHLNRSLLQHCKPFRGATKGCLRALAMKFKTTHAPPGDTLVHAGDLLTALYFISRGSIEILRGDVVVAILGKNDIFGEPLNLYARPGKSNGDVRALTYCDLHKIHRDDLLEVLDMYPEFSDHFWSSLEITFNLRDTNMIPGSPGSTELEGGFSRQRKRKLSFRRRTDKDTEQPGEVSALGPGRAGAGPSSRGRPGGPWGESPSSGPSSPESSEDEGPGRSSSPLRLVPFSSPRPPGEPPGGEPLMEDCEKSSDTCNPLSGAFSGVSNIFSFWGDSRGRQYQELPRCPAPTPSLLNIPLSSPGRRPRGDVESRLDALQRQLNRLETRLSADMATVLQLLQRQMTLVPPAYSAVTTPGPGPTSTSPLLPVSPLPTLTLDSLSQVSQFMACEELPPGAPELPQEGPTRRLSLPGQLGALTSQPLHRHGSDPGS

For `Cc1cc(Cc2cc(-c3ccc(Br)cc3)on2)cc(C)c1OC(C)(C)C(=O)O`, which EC50 [1] is on record?
The EC50 was 2.94 µM.

What about the clearance [2] of the same compound?
The clearance was 3.53 mL/min/kg.

What about the Papp A→B at 2 h, 2 µM [3] of the same compound?
The Papp A→B at 2 h, 2 µM was 0.5 ×10⁻⁶ cm/s.

What about the IC50 (Bile acid receptor) of the same compound?
Its IC50 is greater than 50 µM.

And the IC50 (Cytochrome P450 2C9)?
Its IC50 is 20 µM.

And the Activity (Rattus norvegicus [4])?
Its Activity is 28%.

What about the half-life [5] of the same compound?
The half-life was 3.6 h.

And the Activity (Rattus norvegicus [6])?
Its Activity is “Active”.

And the IC50 (Cytochrome P450 1A2)?
The IC50 was 10 µM.

And the IC50 (Cytochrome P450 2C19)?
Its IC50 is greater than 50 µM.

What about the half-life [7] of the same compound?
The half-life was 6 h.

What about the fraction unbound at 4 h, 2 µM [8] of the same compound?
The fraction unbound at 4 h, 2 µM was less than 0.001.

What about the IC50 [9] of the same compound?
Its IC50 is greater than 30 µM.

What about the AUC(0-t) at 24 h [10] of the same compound?
Its AUC(0-t) at 24 h is 63.2 µM·h.

What about the Papp B→A at 2 h, 2 µM [11] of the same compound?
Its Papp B→A at 2 h, 2 µM is 0.2 ×10⁻⁶ cm/s.

What about the AUC(0-t) at 24 h [12] of the same compound?
Its AUC(0-t) at 24 h is 10.6 µM·h.
